Results reported in ChEMBL document CHEMBL1152120, “RP 73163: A bioavailable alkylsulphinyl-diphenylimidazole ACAT inhibitor” (Bioorg Med Chem Lett, 1996).

Legend:
[1] = target: T1, Acyl-CoA:cholesterol acyltransferase (Oryctolagus cuniculus, UniProt Q95214); test: Compound was evaluated for inhibitory activity against Acyl coenzyme A:cholesterol acyltransferase in microsomes from rabbit intestine.
T1 sequence (Q95214 whole entry): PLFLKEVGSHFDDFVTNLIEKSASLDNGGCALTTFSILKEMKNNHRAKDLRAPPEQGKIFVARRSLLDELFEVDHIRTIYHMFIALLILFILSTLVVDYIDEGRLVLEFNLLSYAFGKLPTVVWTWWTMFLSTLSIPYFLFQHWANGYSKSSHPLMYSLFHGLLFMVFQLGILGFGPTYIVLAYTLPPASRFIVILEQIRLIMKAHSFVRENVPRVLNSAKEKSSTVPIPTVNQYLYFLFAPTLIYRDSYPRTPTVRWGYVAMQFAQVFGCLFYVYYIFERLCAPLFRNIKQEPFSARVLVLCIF

[2] = target: T1, Acyl-CoA:cholesterol acyltransferase; test: Compound was evaluated for inhibitory activity against Acyl coenzyme A:cholesterol acyltransferase in microsomes from rabbit adrenal.
[3] = target: T1, Acyl-CoA:cholesterol acyltransferase; test: Compound was evaluated for inhibitory activity against Acyl coenzyme A:cholesterol acyltransferase in microsomes from rabbit liver.
[4] = target: T1, Acyl-CoA:cholesterol acyltransferase; test: Compound was evaluated for inhibitory activity against Acyl coenzyme A:cholesterol acyltransferase in microsomes from rabbit artery.

IC50 [1]: 370 nM
IC50 [2]: 208 nM
IC50 [3]: 122 nM
IC50 [4]: 245 nM
SMILES: Cc1cc(C)n(CCCCC[S+]([O-])c2nc(-c3ccccc3)c(-c3ccccc3)[nH]2)n1 (centres undefined)
